Measurements: patent US20240059693A1, “FUSED BICYCLIC PYRAZOLE DERIVATIVES AND METHODS OF USE THEREOF FOR THE TREATMENT OF HERPESVIRUSES” (Merck Sharp & Dohme LLC, priority 2020, published 2024)
Where two headings read alike, the source gives them in different places.

How the values were obtained:
[1] = target: T1, Human cytomegalovirus DNA polymerase (Human cytomegalovirus, UniProt P08546); experiment: HCMV polymerase assay (AlphaLISA); assay type: biochemical; conditions: HCMV DNA polymerase 0.2 nM, 60 minutes at 37° C.; read-out: CMV (IC50)
T1 construct: made in house; host or cells: SF21 insect cells (baculovirus vector)
Procedure, shortened: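 Baculovirus/SF21-expressed polymerase (HCMV 0.2 nM; VZV 0.4 nM) pre-incubated 30 min at room temperature with compound in HEPES pH 7.5 buffer, then 60 min at 37 °C with 1.6 nM DIG-primer/template, sub-nM to 24 nM dNTPs and 0.8 nM biotin-dUTP. AlphaLISA detection; IC50 from 4-parameter fit.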

[2] = target: T2, varicella zoster virus DNA polymerase (Varicella-zoster virus, UniProt P09252); experiment: VZV polymerase assay (AlphaLISA); assay type: biochemical; conditions: VZV DNA polymerase 0.4 nM, 60 minutes at 37° C.
T2 construct: made in house; host or cells: SF21 insect cells (baculovirus vector)
Method: Human cytomegalovirus and varicella zoster virus DNA polymerases were expressed via baculovirus vector in SF21 cells and purified. Heterodimeric nucleic acid substrate used in the herpesvirus polymerase reactions was generated by annealing a 59-mer template to a 17-mer digoxigenin-labeled primer. Polymerase (HCMV final concentration of 0.2 nM; VZV final concentration of 0.4 nM) was combined with an inhibitor compound or DMSO in assay buffer (10 mM HEPES, pH 7.5, 25 mM KCl, 25 mM NaCl, 5 mM MgCl2, 5% glycerol, 0.67 mg/ml bovine serum albuminutes, and 1 mM tris(2-carboxyethyl)phosphine), and this mixture was pre-incubated for 30 minutes at room temperature in 384-well microtiter plates. The polymerization reaction was initiated by the addition of template/primer substrate (final concentration: 1.6 nM), and dNTPs (final concentration: 24 nM dCTP, 24 nMdGTP, 16 nM dATP, 16 nM dTTP, and 0.8 nM biotin-dUTP). After 60 minutes incubation at 37° C., reactions were terminated with quench buffer (25 mM HEPES pH 7.5, 100 mM NaCl, 0.25% Tween-20, 12 mM EDTA, and 1 mg/ml bovine serum albumin). Incorporation of biotinylated UTP was detected with 2.5-ug/ml anti-DIG AlphaLISA acceptor beads and 5-10 ug/ml streptavidin AlphaLISA donor beads (Perkin Elmer). Compound effects were normalized to the window defined by the controls (DMSO only and pre-quenched wells) and were fit using a 4-parameter algorithm to report an IC50.

HCMV Strain AD169 = experiment: Viral qPCR assay, HCMV in MRC-5 cells; assay type: cell-based, Human cytomegalovirus; conditions: read-out: CMV MRC5 Cell (EC50)
Procedure, shortened: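 Viral genome copies, quantified by TaqMan qPCR with a plasmid standard curve after ~72 h infection of MRC-5 cells with AD169 at 0.05-0.1 pfu/cell, served as readout; PPIA normalisation used in one format. Compounds run as 10-point 3-fold series, in standard or 50% FBS media; EC50 by 4-parameter fit.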

HSV-1 Strain F = experiment: Viral qPCR assay, HSV-1 in Vero cells; assay type: cell-based, Herpes Simplex Virus type 1; conditions: read-out: HSV1 VERO Cell (EC50)
Method: (§1) MRCS cells, Vero cells, and MeWo cells were obtained from ATCC and were maintained at 37° C./5% CO2/90% relative humidity in Minimal Essential Medium with 10% fetal bovine serum, […] L-glutamine, 100 units/ml penicillin and 100 ug/ml streptomycin. Assay plates were prepared by dispensing compounds dissolved in DMSO into wells of 384 well collagen-coated plates using an ECHO acoustic dispenser. Each compound was tested in a 10-point, serial 3-fold dilution. Controls included uninfected cells and infected cells treated only with DMSO. Assays were initiated by mixing selected cells, in suspension, with virus, and dispensing 50 μl/well infected cells to pre-plated compounds. Plates were incubated at 37° C./5% CO2/90% relative humidity for ˜72 hrs to permit genomic replication, and infected cells were lysed by the addition of an equal volume of lysis buffer (10 mM Tris-HCl, pH8, 50 mM KCl, 2 mM MgCl2, 0.45% NP-40, 0.45% Tween-20, and 100 μg/ml proteinase K). An aliquot of the lysate was transferred to a 384-well PCR plate and incubated at 56° C. for 1 hour and then at 95° C. for 10 min. Levels of a viral gene and of the cellular control, PPIA (Thermo Fisher Assay ID=Hs04194521_s1), were measured in separate 10 μL qPCR assays using TaqMan® Gene Expression Master Mix (Applied Biosystems), and an 7900HT Fast Real-Time PCR System with 384-Well Block Module. 7-point, serial 10-fold dilutions of a plasmid standard were run on each plate to generate a standard curve, and genome copies numbers were calculated by plotting experimental Ct onto linear regression of the standard curve. Viral genome copy numbers were normalized by cellular control copy number, and compound effects were normalized to the window defined by the controls. Calculated % effects were fit using a 4-parameter algorithm, and EC50 was reported.
as §1, with “gene” for “gene and of the cellular control, PPIA (Thermo Fisher Assay ID=Hs04194521_s1),”, “in” for “in separate”, “Compound effects on viral” for “Viral”, “number” for “numbers were normalized by cellular control copy number, and compound effects”
VZV: Strain Street was maintained as an infected cell stock in MRC-5 cells. It was assayed in MeWo or MRCS cells and was used at 0.04-0.1 pfu/cell. The assays were performed in growth medium. Primer-probe set was Thermo Fisher Assay ID=AIPAEXQ. HSV-1: Strain F Street was assayed in Vero or MRCS cells and was used at 0.0005-0.004 pfu/cell in growth medium. Primer-probe set was Thermo Fisher Assay ID=AIBJZIB

HSV2 = experiment: Viral qPCR assay, HSV2 in Vero cells; assay type: cell-based, Herpes Simplex Virus type 2; conditions: read-out: HSV2 VERO Cell (EC50)
Method: as §1
as §1, with “gene” for “gene and of the cellular control, PPIA (Thermo Fisher Assay ID=Hs04194521_s1),”, “in” for “in separate”, “Compound effects on viral” for “Viral”, “number” for “numbers were normalized by cellular control copy number, and compound effects”

[3] = Human betaherpesvirus 5, AD169, MRC5, 72 h
[4] = Human alphaherpesvirus 1, Vero, 72 h
[5] = Human alphaherpesvirus 2, Vero, 72 h

T2 sequence (P09252 whole entry): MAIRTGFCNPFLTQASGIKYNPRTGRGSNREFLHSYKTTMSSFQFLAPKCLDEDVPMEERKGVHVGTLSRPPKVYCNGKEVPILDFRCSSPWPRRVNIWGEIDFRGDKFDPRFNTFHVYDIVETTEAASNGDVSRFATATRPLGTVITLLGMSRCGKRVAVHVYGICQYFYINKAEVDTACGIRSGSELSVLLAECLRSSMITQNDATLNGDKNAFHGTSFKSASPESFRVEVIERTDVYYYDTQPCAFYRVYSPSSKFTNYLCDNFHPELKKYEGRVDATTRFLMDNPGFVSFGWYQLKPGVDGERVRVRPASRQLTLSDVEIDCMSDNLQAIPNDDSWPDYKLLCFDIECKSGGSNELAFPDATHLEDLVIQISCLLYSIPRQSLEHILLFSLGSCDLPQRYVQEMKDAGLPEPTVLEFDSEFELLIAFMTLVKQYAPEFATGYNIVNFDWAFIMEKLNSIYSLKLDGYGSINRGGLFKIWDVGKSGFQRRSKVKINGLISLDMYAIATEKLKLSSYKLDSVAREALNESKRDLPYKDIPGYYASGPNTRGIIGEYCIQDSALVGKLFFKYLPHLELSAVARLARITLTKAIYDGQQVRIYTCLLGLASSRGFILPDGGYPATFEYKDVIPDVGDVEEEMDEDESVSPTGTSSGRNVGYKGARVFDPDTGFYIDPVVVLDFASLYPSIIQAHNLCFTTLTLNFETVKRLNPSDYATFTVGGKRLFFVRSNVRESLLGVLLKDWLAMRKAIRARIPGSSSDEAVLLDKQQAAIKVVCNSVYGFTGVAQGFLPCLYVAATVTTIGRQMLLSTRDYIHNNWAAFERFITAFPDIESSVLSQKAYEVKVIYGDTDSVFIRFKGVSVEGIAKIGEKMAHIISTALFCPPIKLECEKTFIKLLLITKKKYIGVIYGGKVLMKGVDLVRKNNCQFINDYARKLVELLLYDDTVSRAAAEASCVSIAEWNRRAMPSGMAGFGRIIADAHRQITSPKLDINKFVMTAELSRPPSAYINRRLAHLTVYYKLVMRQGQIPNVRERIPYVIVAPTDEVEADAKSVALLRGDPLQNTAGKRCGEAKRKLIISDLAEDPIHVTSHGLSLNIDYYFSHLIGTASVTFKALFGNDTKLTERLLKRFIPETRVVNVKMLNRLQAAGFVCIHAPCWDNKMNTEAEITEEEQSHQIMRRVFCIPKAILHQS
T1 sequence (P08546 whole entry): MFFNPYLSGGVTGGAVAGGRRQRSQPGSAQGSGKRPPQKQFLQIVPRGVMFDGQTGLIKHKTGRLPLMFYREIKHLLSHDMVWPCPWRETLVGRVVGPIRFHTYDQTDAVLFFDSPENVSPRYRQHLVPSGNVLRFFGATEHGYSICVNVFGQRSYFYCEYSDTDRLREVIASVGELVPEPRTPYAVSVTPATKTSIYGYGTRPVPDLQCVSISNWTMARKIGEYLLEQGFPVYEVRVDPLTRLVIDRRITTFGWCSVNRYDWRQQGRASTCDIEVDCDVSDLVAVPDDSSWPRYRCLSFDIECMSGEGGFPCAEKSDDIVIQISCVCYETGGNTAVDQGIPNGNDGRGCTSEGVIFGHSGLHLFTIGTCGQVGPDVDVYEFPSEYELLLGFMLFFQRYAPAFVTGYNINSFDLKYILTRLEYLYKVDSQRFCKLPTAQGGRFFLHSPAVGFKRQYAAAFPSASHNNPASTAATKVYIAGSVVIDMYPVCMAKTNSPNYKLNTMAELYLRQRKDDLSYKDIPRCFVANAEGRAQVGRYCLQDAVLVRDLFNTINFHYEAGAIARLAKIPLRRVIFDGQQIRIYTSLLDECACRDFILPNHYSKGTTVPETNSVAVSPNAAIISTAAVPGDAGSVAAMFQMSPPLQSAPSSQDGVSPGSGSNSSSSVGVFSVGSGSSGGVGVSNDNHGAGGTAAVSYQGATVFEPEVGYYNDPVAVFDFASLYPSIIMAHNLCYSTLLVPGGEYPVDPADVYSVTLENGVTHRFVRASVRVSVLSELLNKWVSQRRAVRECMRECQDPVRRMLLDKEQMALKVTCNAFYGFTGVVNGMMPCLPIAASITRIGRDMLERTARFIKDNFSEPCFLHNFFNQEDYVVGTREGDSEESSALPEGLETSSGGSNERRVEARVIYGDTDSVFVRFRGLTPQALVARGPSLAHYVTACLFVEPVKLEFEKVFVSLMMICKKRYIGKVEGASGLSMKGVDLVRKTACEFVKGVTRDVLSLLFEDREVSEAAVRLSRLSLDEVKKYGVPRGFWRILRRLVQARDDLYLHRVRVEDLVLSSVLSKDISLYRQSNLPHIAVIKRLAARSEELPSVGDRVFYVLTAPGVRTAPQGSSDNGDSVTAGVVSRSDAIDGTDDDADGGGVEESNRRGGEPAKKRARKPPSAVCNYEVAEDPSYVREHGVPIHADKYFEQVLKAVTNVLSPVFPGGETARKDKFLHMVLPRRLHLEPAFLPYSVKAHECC

Compound	IC50 [1]	IC50 [2]	EC50 (HSV-1 Strain F; ~72 hrs)	EC50 (HSV2; ~72 hrs)	EC50 (HSV-1 Strain F; [4])	EC50 (HSV2; [5])	EC50 (HCMV Strain AD169; MRC5 cells, ~72 hrs)	EC50 (HCMV Strain AD169; [3])
CC1c2c(c(C(=O)NCc3ccc(Cl)cc3)nn2C)CN1C[C@H]1CCC(=O)N1 (single isomer, unassigned) [Compound 107]	4.54 µM	1.51 µM	73.8 µM	90.3 µM	–	–	99 µM	–
O=C1CC[C@H](CC2Cc3c(C(=O)NCc4ccc(Cl)cc4)nn(C4CN(CC5CC5)C4)c3C2)N1 (single isomer, unassigned) [Compound 136]	0.119 µM	0.0165 µM	–	–	3.52 µM	2.52 µM	–	0.98 µM
O=C1CC[C@H](CN2Cc3c(C(=O)NCc4ccc(Cl)cc4)nn(CC4(CF)COC4)c3C2)N1 [Compound 41]	0.111 µM	0.0237 µM	–	–	20.4 µM	30.6 µM	–	6.32 µM
CN(CCn1nc(C(=O)NCc2ccc(Cl)cc2)c2c1CN(Cc1ccnc(F)c1)C2)C(=O)C1CCC1 [Compound 66]	0.112 µM	0.0486 µM	–	–	–	–	–	–
CN(CCn1nc(C(=O)NCc2ccc(Cl)cc2)c2c1CN(Cc1ccncc1F)C2)C(=O)C1CCC1 [Compound 68]	0.123 µM	0.0591 µM	–	–	–	–	–	–
O=C(NCc1ccc(Cl)cc1)c1nn(CCNC(=O)C2CCC2)c2c1CN(Cc1ccncc1F)C2 [Compound 69]	0.173 µM	0.0849 µM	–	–	–	–	–	–
CC1c2c(c(C(=O)NCc3ccc(Cl)cc3)nn2C)CN1C[C@@H]1CCC(=O)N1 (stereo partly drawn) [Compound 101]	0.531 µM	0.391 µM	29.1 µM	–	–	–	32.7 µM	–
Cn1nc(C(=O)NCc2ccc(Cl)cc2)c2c1C(CO)N(C[C@H]1CCC(=O)N1)C2 (stereo partly drawn) [Compound 122]	0.195 µM	0.0241 µM	0.86 µM	–	–	–	1.31 µM	–
Cn1nc(C(=O)NCc2ccc(Cl)cc2)c2c1C1(CCC1)N(C[C@@H]1CCC(=O)N1)C2 [Compound 123]	1.21 µM	0.898 µM	–	–	13.3 µM	–	–	14.7 µM
C[C@@H]1c2c(C(=O)NCc3ccc(Cl)cc3)nn(C)c2CN1C[C@H]1CCC(=O)N1 [Compound 125]	1.37 µM	–	4.98 µM	8.04 µM	–	–	2.98 µM	–
CN1CC(n2nc(C(=O)NCc3ccc(Cl)cc3)c3c2CC(C[C@@H]2CCC(=O)N2)C3)C1 (stereo partly drawn) [Compound 138]	0.17 µM	–	4.31 µM	5.9 µM	–	–	1.87 µM	–
Cn1nc(C(=O)NCc2ccc(Cl)cc2)c2c1CC(O)(C[C@H]1CCC(=O)N1)C2 (stereo partly drawn) [Compound 139]	50.5 µM	–	99 µM	33 µM	–	–	99 µM	–

Continued, in another order:

IC50 [1]	IC50 [2]	EC50 (HSV-1 Strain F; ~72 hrs)	EC50 (HSV2; ~72 hrs)	EC50 (HSV-1 Strain F; [4])	EC50 (HSV2; [5])	Compound	EC50 (HCMV Strain AD169; MRC5 cells, ~72 hrs)	EC50 (HCMV Strain AD169; [3])
0.108 µM	0.0305 µM	1.06 µM	1.55 µM	–	–	CCC1c2c(c(C(=O)NCc3ccc(Cl)cc3)nn2C)CN1CC1CCC(=O)N1 (single isomer, unassigned) [Compound 106]	1.17 µM	–
0.00444 µM	0.00444 µM	3.84 µM	4.12 µM	–	–	Cn1nc(C(=O)NCc2ccc(Cl)cc2)c2c1CC(CC1CCC(=O)N1)C2 (single isomer, unassigned) [Compound 130]	1.2 µM	–
0.0632 µM	0.0265 µM	0.439 µM	0.705 µM	–	–	Cn1nc(C(=O)NCc2ccc(Cl)cc2)c2c1CC(O)(CC1CCC(=O)N1)C2 (single isomer, unassigned) [Compound 140]	2.66 µM	–
0.0526 µM	0.0326 µM	–	–	26.1 µM	–	O=C1CC[C@H](CN2Cc3c(C(=O)NCc4ccc(Cl)cc4)nn(CCN4CC(F)C4)c3C2)N1 [Compound 4]	–	2.98 µM
0.0162 µM	0.0102 µM	–	–	66.1 µM	–	CC1(C(=O)NCCn2nc(C(=O)NCc3ccc(Cl)cc3)c3c2CN(C[C@H]2CCC(=O)N2)C3)CC1 [Compound 26]	–	2.63 µM
0.0548 µM	0.031 µM	–	–	1.85 µM	0.581 µM	CC(C)n1nc(C(=O)NCc2ccc(Cl)cc2)c2c1CN(C[C@H]1CCC(=O)N1)C2 [Compound 35]	–	2.67 µM
0.0233 µM	0.0608 µM	–	–	15.5 µM	23.4 µM	O=C1CC[C@H](CN2Cc3c(C(=O)NCc4ccc(Cl)cc4)nn(CC4(F)COC4)c3C2)N1 [Compound 37]	–	3.29 µM
0.0549 µM	0.0452 µM	–	–	12.4 µM	16.2 µM	O=C1CC[C@H](CN2Cc3c(C(=O)NCc4ccc(Cl)cc4)nn(CC4CCO4)c3C2)N1 (stereo partly drawn) [Compound 39]	–	1.58 µM
0.0891 µM	0.0908 µM	–	–	23.3 µM	34.5 µM	CCC1(Cn2nc(C(=O)NCc3ccc(Cl)cc3)c3c2CN(C[C@H]2CCC(=O)N2)C3)COC1 [Compound 40]	–	5.3 µM
0.0697 µM	0.118 µM	–	–	–	–	O=C1CC[C@H](CN2Cc3c(C(=O)NCc4ccc(Cl)cc4)nn(Cc4nccs4)c3C2)N1 [Compound 48]	–	4.01 µM
0.0993 µM	0.076 µM	–	–	–	–	CN(CCn1nc(C(=O)NCc2ccc(Cl)cc2)c2c1CN(Cc1c(F)cncc1F)C2)C(=O)C1CCC1 [Compound 63]	–	–
